Reference: patent US9409952B2, “Peptide-compound cyclization method” (Chugai Seiyaku Kabushiki Kaisha, priority 2011, dated 2016)
Starred links: 1 amine or outer side, 2 acyl side, 3 side chain; linkers in the order of their positions; H or OH if unused. Positions of bridges follow the written chain, without caps; N, C: chain ends. Non-standard residues stand in square brackets, D forms with d. Residues, ends and D or L forms follow the SMILES beside them. *: point of attachment. NMeF = CN[C@@H](Cc1ccccc1)C(=O)O; NMeGABA = CN(CCCC(=O)[*:2])[*:1]; NMeβAla = CN(CCC(=O)[*:2])[*:1]; NMeL = CN[C@@H](CC(C)C)C(=O)O; NMeV = CN[C@H](C(=O)O)C(C)C; NMeA = CN[C@@H](C)C(=O)O; Piperidide = C1CCN(*)CC1; dNMeA = CN[C@H](C)C(=O)O; Sar = CNCC(=O)O

What was measured:
[1] = PAMPA (parallel artificial membrane permeability assay); assay type: in vitro ADME; conditions: PAMPA; membrane permeation rate (Pe); 50 mM MOPSO buffer pH 6.5 with 5.0% glycocholic acid, 37° C., 18 hours; read-out: iPAMPA Pe
How it was run: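 Artificial membrane was 10% (w/v) egg lecithin plus 0.5% (w/v) cholesterol in dodecane on a PVDF filter. A 10 mM DMSO stock was added at 0.5% (v/v) to donor buffer (50 mM MOPSO, pH 6.5, 5.0% glycocholic acid). After 18 h at 37 °C, LC/MS or LC/UV gave donor and acceptor levels for Pe.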

[2] = Metabolic stability in human hepatic microsome; assay type: in vitro ADME; conditions: microsomes, pH 7.4; human hepatic microsome, NADPH(+); read-out: CL NADPH(+)

With CC(C)C[C@H]1C(=O)N[C@@H](Cc2ccccc2)C(=O)N(C)[C@@H](C(C)C)C(=O)N[C@@H]([C@@H](C)O)C(=O)N(C)[C@@H](C)C(=O)NCC(=O)N(C)[C@@H](Cc2ccccc2)C(=O)N[C@H](C(=O)N(C)[C@@H](Cc2ccccc2)C(=O)N[C@@H](C)C(=O)N2CCCCC2)CC(=O)N(C)CCC(=O)N[C@@H](C(C)C)C(=O)N1C [DP-352] ([NMeβAla]V[NMeL]F[NMeV]T[NMeA]G[NMeF]D[NMeF]A-Piperidide; lactam N-10) the Papp at 18 hours, 50 µM [1] was 25 ×10⁻⁶ cm/s and the microsomal CLint at 1 uM [2] was 66 µL/min/mg.

Compound CC(C)C[C@H]1C(=O)N[C@@H]([C@@H](C)O)C(=O)N(C)[C@@H](C)C(=O)N[C@H](C(=O)N(C)[C@@H](Cc2ccccc2)C(=O)N[C@@H](C)C(=O)N2CCCCC2)CC(=O)N(C)[C@H](C)C(=O)N(C)[C@@H](Cc2ccccc2)C(=O)N(C)[C@@H](C)C(=O)N[C@@H](C)C(=O)N(C)[C@@H](C)C(=O)N(C)[C@@H](Cc2ccccc2)C(=O)N1C [DP-353] ([dNMeA][NMeF][NMeA]A[NMeA][NMeF][NMeL]T[NMeA]D[NMeF]A-Piperidide; lactam N-10) has a Papp at 18 hours, 50 µM [1] of 16 ×10⁻⁶ cm/s and a microsomal CLint at 1 uM [2] of 13 µL/min/mg.

Compound CC(C)C[C@H]1C(=O)N[C@@H](C)C(=O)N(C)[C@@H](C)C(=O)N[C@H](C(=O)N(C)[C@@H](Cc2ccccc2)C(=O)N[C@@H](C)C(=O)N2CCCCC2)CC(=O)N(C)[C@H](C)C(=O)N(C)[C@@H](C(C)C)C(=O)N(C)[C@@H](C)C(=O)N[C@@H](Cc2ccccc2)C(=O)N[C@@H]([C@@H](C)O)C(=O)N(C)[C@@H](C)C(=O)N1C [DP-354] ([dNMeA][NMeV][NMeA]FT[NMeA][NMeL]A[NMeA]D[NMeF]A-Piperidide; lactam N-10) has a Papp at 18 hours, 50 µM [1] of 3.3 ×10⁻⁶ cm/s and a microsomal CLint at 1 uM [2] of 8 µL/min/mg.

In the case of CC(C)C[C@H]1C(=O)N[C@@H](Cc2ccccc2)C(=O)N[C@@H]([C@@H](C)O)C(=O)N(C)[C@@H](C)C(=O)N(C)[C@@H](Cc2ccccc2)C(=O)N(C)[C@@H](C(C)C)C(=O)NCC(=O)N[C@H](C(=O)N(C)[C@@H](Cc2ccccc2)C(=O)N[C@@H](C)C(=O)N2CCCCC2)CC(=O)N(C)[C@H](C)C(=O)N[C@@H](C)C(=O)N1C [DP-355] ([dNMeA]A[NMeL]FT[NMeA][NMeF][NMeV]GD[NMeF]A-Piperidide; lactam N-10), the Papp at 18 hours, 50 µM [1] is reported as 17 ×10⁻⁶ cm/s and the microsomal CLint at 1 uM [2] is reported as 66 µL/min/mg.

With CC(C)C[C@H]1C(=O)N[C@@H]([C@@H](C)O)C(=O)NCC(=O)N[C@@H](C(C)C)C(=O)N[C@H](C(=O)N(C)[C@@H](Cc2ccccc2)C(=O)N[C@@H](C)C(=O)N2CCCCC2)CC(=O)N(C)[C@H](C)C(=O)N(C)[C@@H](C(C)C)C(=O)N[C@@H](Cc2ccccc2)C(=O)N(C)[C@@H](Cc2ccccc2)C(=O)N(C)[C@@H](C)C(=O)N1C [DP-356] ([dNMeA][NMeV]F[NMeF][NMeA][NMeL]TGVD[NMeF]A-Piperidide; lactam N-10) the Papp at 18 hours, 50 µM [1] was 34 ×10⁻⁶ cm/s and the microsomal CLint at 1 uM [2] was 66 µL/min/mg.

Work on CC(C)C[C@H]1C(=O)N(C)[C@@H](C)C(=O)N[C@H](C(=O)N(C)[C@@H](Cc2ccccc2)C(=O)N[C@@H](C)C(=O)N2CCCCC2)CC(=O)N(C)[C@@H](C)C(=O)N(C)[C@@H](Cc2ccccc2)C(=O)N(C)[C@@H](C)C(=O)N[C@@H]([C@@H](C)O)C(=O)N(C)[C@@H](C)C(=O)N[C@@H](C(C)C)C(=O)N1C [DP-357] ([NMeA][NMeF][NMeA]T[NMeA]V[NMeL][NMeA]D[NMeF]A-Piperidide; lactam N-9) yielded a Papp at 18 hours, 50 µM [1] of 14 ×10⁻⁶ cm/s and a microsomal CLint at 1 uM [2] of 56 µL/min/mg.

CC(C)C[C@H]1C(=O)N[C@@H]([C@@H](C)O)C(=O)N(C)[C@@H](C)C(=O)N(C)[C@@H](CC(C)C)C(=O)N[C@H](C(=O)N(C)[C@@H](Cc2ccccc2)C(=O)N[C@@H](C)C(=O)N2CCCCC2)CC(=O)N(C)CCC(=O)N(C)[C@@H](Cc2ccccc2)C(=O)N(C)[C@@H](C(C)C)C(=O)N[C@@H](C(C)C)C(=O)N1C [DP-358] ([NMeβAla][NMeF][NMeV]V[NMeL]T[NMeA][NMeL]D[NMeF]A-Piperidide; lactam N-9) gave a Papp at 18 hours, 50 µM [1] of 32 ×10⁻⁶ cm/s and a microsomal CLint at 1 uM [2] of 82 µL/min/mg.

With CC(C)C[C@H]1C(=O)N(C)[C@@H](C)C(=O)N[C@@H]([C@@H](C)O)C(=O)N(C)[C@@H](C)C(=O)N(C)[C@@H](Cc2ccccc2)C(=O)N[C@@H](Cc2ccccc2)C(=O)N[C@H](C(=O)N(C)[C@@H](Cc2ccccc2)C(=O)N[C@@H](C)C(=O)N2CCCCC2)CC(=O)N(C)CCC(=O)N(C)[C@@H](C)C(=O)N[C@@H](C)C(=O)N(C)CC(=O)N1C [DP-361] ([NMeβAla][NMeA]A[Sar][NMeL][NMeA]T[NMeA][NMeF]FD[NMeF]A-Piperidide; lactam N-11) the Papp at 18 hours, 50 µM [1] was 1.5 ×10⁻⁶ cm/s and the microsomal CLint at 1 uM [2] was 9 µL/min/mg.

CC(C)C[C@H]1C(=O)N[C@@H](Cc2ccccc2)C(=O)N(C)[C@@H](C)C(=O)N(C)[C@@H](C)C(=O)N[C@@H]([C@@H](C)O)C(=O)N(C)CC(=O)N(C)[C@@H](Cc2ccccc2)C(=O)N[C@H](C(=O)N(C)[C@@H](Cc2ccccc2)C(=O)N[C@@H](C)C(=O)N2CCCCC2)CC(=O)N(C)[C@H](C)C(=O)N(C)[C@@H](C)C(=O)N[C@@H](C)C(=O)N1C [DP-363] ([dNMeA][NMeA]A[NMeL]F[NMeA][NMeA]T[Sar][NMeF]D[NMeF]A-Piperidide; lactam N-11) gave a Papp at 18 hours, 50 µM [1] of 5 ×10⁻⁶ cm/s and a microsomal CLint at 1 uM [2] of 15 µL/min/mg.

In the case of CC[C@H](C)[C@@H]1NC(=O)[C@@H]2CCCN2C(=O)[C@H](CC(C)C)N(C)C(=O)[C@H](Cc2ccccc2)NC(=O)CCCN(C)C(=O)C[C@@H](C(=O)N(C)[C@@H](Cc2ccccc2)C(=O)N[C@@H](C)C(=O)N2CCCCC2)NC(=O)[C@H]([C@@H](C)O)NC(=O)[C@H](CC(C)C)NC(=O)[C@H](Cc2ccccc2)N(C)C(=O)CNC(=O)[C@H](CC(C)C)N(C)C1=O [DP-364] ([NMeGABA]F[NMeL]PI[NMeL]G[NMeF]LTD[NMeF]A-Piperidide; lactam N-11), the Papp at 18 hours, 50 µM [1] is reported as 28 ×10⁻⁶ cm/s and the microsomal CLint at 1 uM [2] is reported as 75 µL/min/mg.

For CC(C)C[C@@H]1NC(=O)[C@H](CC(C)C)N(C)C(=O)CNC(=O)[C@H](C(C)C)N(C)C(=O)[C@H](C)N(C)C(=O)[C@H]([C@@H](C)O)NC(=O)[C@H](C)N(C)C(=O)CCCN(C)C(=O)C[C@@H](C(=O)N(C)[C@@H](Cc2ccccc2)C(=O)N[C@@H](C)C(=O)N2CCCCC2)NC(=O)[C@H](Cc2ccccc2)NC(=O)[C@H](CC(C)C)N(C)C1=O [DP-365] ([NMeGABA][NMeA]T[NMeA][NMeV]G[NMeL]L[NMeL]FD[NMeF]A-Piperidide; lactam N-11), the Papp at 18 hours, 50 µM [1] was 20 ×10⁻⁶ cm/s and the microsomal CLint at 1 uM [2] was 35 µL/min/mg.

Compound CC(C)C[C@H]1C(=O)N[C@@H](C)C(=O)N(C)[C@@H](Cc2ccccc2)C(=O)N(C)[C@@H](C(C)C)C(=O)N[C@@H](C)C(=O)N(C)[C@@H](C)C(=O)N[C@H](C(=O)N(C)[C@@H](Cc2ccccc2)C(=O)N[C@@H](C)C(=O)N2CCCCC2)CC(=O)N(C)[C@@H](C)C(=O)N(C)[C@@H](Cc2ccccc2)C(=O)N[C@@H]([C@@H](C)O)C(=O)N(C)[C@@H](C)C(=O)N1C [DP-367] ([NMeA][NMeF]T[NMeA][NMeL]A[NMeF][NMeV]A[NMeA]D[NMeF]A-Piperidide; lactam N-11) has a Papp at 18 hours, 50 µM [1] of 12 ×10⁻⁶ cm/s and a microsomal CLint at 1 uM [2] of 17 µL/min/mg.

For CC(C)C[C@H]1C(=O)N(C)[C@@H](C)C(=O)N[C@@H](C)C(=O)N(C)[C@@H](C)C(=O)N(C)[C@@H](Cc2ccccc2)C(=O)N(C)[C@@H](C)C(=O)N[C@@H]([C@@H](C)O)C(=O)N(C)[C@@H](C)C(=O)N(C)[C@@H](C)C(=O)N[C@H](C(=O)N(C)[C@@H](Cc2ccccc2)C(=O)N[C@@H](C)C(=O)N2CCCCC2)CC(=O)N(C)[C@@H](C)C(=O)N1C [DP-368] ([NMeA][NMeL][NMeA]A[NMeA][NMeF][NMeA]T[NMeA][NMeA]D[NMeF]A-Piperidide; lactam N-11), the Papp at 18 hours, 50 µM [1] was 1.6 ×10⁻⁶ cm/s and the microsomal CLint at 1 uM [2] was 6 µL/min/mg.

In the case of CC(C)C[C@H]1C(=O)N[C@@H]([C@@H](C)O)C(=O)N(C)[C@@H](C)C(=O)N[C@H](C(=O)N(C)[C@@H](Cc2ccccc2)C(=O)N[C@@H](C)C(=O)N2CCCCC2)CC(=O)N(C)CCC(=O)N(C)[C@@H](C(C)C)C(=O)N(C)[C@@H](Cc2ccccc2)C(=O)N(C)[C@@H](Cc2ccccc2)C(=O)N[C@@H](C)C(=O)N(C)[C@@H](C)C(=O)N1C [DP-370] ([NMeβAla][NMeV][NMeF][NMeF]A[NMeA][NMeL]T[NMeA]D[NMeF]A-Piperidide; lactam N-10), the Papp at 18 hours, 50 µM [1] is reported as 25 ×10⁻⁶ cm/s and the microsomal CLint at 1 uM [2] is reported as 36 µL/min/mg.

CC[C@H](C)[C@@H]1NC(=O)CN(C)C(=O)[C@H](Cc2ccccc2)N(C)C(=O)[C@H](C)N(C)C(=O)[C@H]([C@@H](C)O)NC(=O)[C@H](CC(C)C)N(C)C(=O)[C@@H](C)N(C)C(=O)C[C@@H](C(=O)N(C)[C@@H](Cc2ccccc2)C(=O)N[C@@H](C)C(=O)N2CCCCC2)NC(=O)[C@H](C(C)C)N(C)C(=O)[C@H](CC(C)C)N(C)C1=O [DP-371] ([dNMeA][NMeL]T[NMeA][NMeF][Sar]I[NMeL][NMeV]D[NMeF]A-Piperidide; lactam N-10) gave a Papp at 18 hours, 50 µM [1] of 34 ×10⁻⁶ cm/s and a microsomal CLint at 1 uM [2] of 31 µL/min/mg.

Work on CC(C)C[C@H]1C(=O)N(C)[C@@H](C(C)C)C(=O)N[C@@H](Cc2ccccc2)C(=O)N[C@H](C(=O)N(C)[C@@H](Cc2ccccc2)C(=O)N[C@@H](C)C(=O)N2CCCCC2)CC(=O)N(C)CCCC(=O)N[C@@H](C(C)C)C(=O)N(C)[C@@H](CC(C)C)C(=O)N[C@@H]([C@@H](C)O)C(=O)N(C)[C@@H](Cc2ccccc2)C(=O)NCC(=O)N1C [DP-372] ([NMeGABA]V[NMeL]T[NMeF]G[NMeL][NMeV]FD[NMeF]A-Piperidide; lactam N-10) yielded a Papp at 18 hours, 50 µM [1] of 42 ×10⁻⁶ cm/s and a microsomal CLint at 1 uM [2] of 78 µL/min/mg.

Compound CC[C@H](C)[C@@H]1NC(=O)CN(C)C(=O)[C@H](Cc2ccccc2)N(C)C(=O)[C@H]([C@@H](C)O)NC(=O)[C@H](CC(C)C)N(C)C(=O)[C@H](C)N(C)C(=O)CCCN(C)C(=O)C[C@@H](C(=O)N(C)[C@@H](Cc2ccccc2)C(=O)N[C@@H](C)C(=O)N2CCCCC2)NC(=O)[C@H](C(C)C)N(C)C(=O)[C@H](CC(C)C)N(C)C1=O [DP-374] ([NMeGABA][NMeA][NMeL]T[NMeF][Sar]I[NMeL][NMeV]D[NMeF]A-Piperidide; lactam N-10) has a Papp at 18 hours, 50 µM [1] of 24 ×10⁻⁶ cm/s and a microsomal CLint at 1 uM [2] of 53 µL/min/mg.
